Source: PubChem BioAssay (NCI)
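Assay format: 96-well plates, 48-hour exposure. GI50 is the concentration that inhibits growth by half. TGI marks complete inhibition of growth.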

How the values were obtained:
Assay in all cases: growth of human tumour cells (NCI), 48 h
EKVX NSCLC = tested on: EKVX NSCLC
HS 578T breast = tested on: HS 578T breast
SF-539 CNS = tested on: SF-539 CNS
SK-MEL-5 melanoma = tested on: SK-MEL-5 melanoma
HOP-92 NSCLC = tested on: HOP-92 NSCLC
HCC-2998 colon = tested on: HCC-2998 colon
M14 melanoma = tested on: M14 melanoma
NCI/ADR-RES ovarian = tested on: NCI/ADR-RES ovarian
A549 NSCLC = tested on: A549 NSCLC
NCI-H460 lung = tested on: NCI-H460 lung
OVCAR-5 ovarian = tested on: OVCAR-5 ovarian
RXF 393 renal = tested on: RXF 393 renal
BT-549 breast = tested on: BT-549 breast
RPMI-8226 leukemia = tested on: RPMI-8226 leukemia
T-47D breast = tested on: T-47D breast
ACHN renal = tested on: ACHN renal
SF-295 CNS = tested on: SF-295 CNS
A498 renal = tested on: A498 renal
IGROV1 ovarian = tested on: IGROV1 ovarian
SK-MEL-28 melanoma = tested on: SK-MEL-28 melanoma
MALME-3M melanoma = tested on: MALME-3M melanoma
HL-60(TB) leukemia = tested on: HL-60(TB) leukemia
SF-268 CNS = tested on: SF-268 CNS
DU-145 prostate = tested on: DU-145 prostate
SR leukemia = tested on: SR leukemia
COLO 205 colon = tested on: COLO 205 colon
NCI-H23 lung = tested on: NCI-H23 lung
HCT-15 colon = tested on: HCT-15 colon
HOP-62 NSCLC = tested on: HOP-62 NSCLC
UO-31 renal = tested on: UO-31 renal
CCRF-CEM leukemia = tested on: CCRF-CEM leukemia
MDA-MB-435 = tested on: MDA-MB-435
HCT-116 colon = tested on: HCT-116 colon
MCF7 breast = tested on: MCF7 breast
UACC-257 melanoma = tested on: UACC-257 melanoma
TK-10 renal = tested on: TK-10 renal
NCI-H226 lung = tested on: NCI-H226 lung
U251 CNS = tested on: U251 CNS
SNB-19 CNS = tested on: SNB-19 CNS
HT29 colon = tested on: HT29 colon
SNB-75 CNS = tested on: SNB-75 CNS
SW-620 colon = tested on: SW-620 colon
NCI-H522 lung = tested on: NCI-H522 lung
SK-OV-3 ovarian = tested on: SK-OV-3 ovarian
786-0 renal = tested on: 786-0 renal
PC-3 prostate = tested on: PC-3 prostate
K-562 leukemia = tested on: K-562 leukemia
OVCAR-4 ovarian = tested on: OVCAR-4 ovarian
SK-MEL-2 melanoma = tested on: SK-MEL-2 melanoma
MOLT-4 leukemia = tested on: MOLT-4 leukemia
KM12 colon = tested on: KM12 colon
SN12C renal = tested on: SN12C renal
UACC-62 melanoma = tested on: UACC-62 melanoma
MDA-MB-231 breast = tested on: MDA-MB-231 breast
LOX IMVI melanoma = tested on: LOX IMVI melanoma
CAKI-1 renal = tested on: CAKI-1 renal
OVCAR-8 ovarian = tested on: OVCAR-8 ovarian

**Q.** For `Cn1ccnc1C(=O)/C=C/c1ccc(CNC(=O)c2ccc(F)cc2)cc1`, which GI50 (EKVX NSCLC) is on record?
**A.** 10.4 µM

**Q.** What about the TGI (EKVX NSCLC) of the same molecule?
**A.** > 25 µM

**Q.** What about the GI50 (HS 578T breast) of the same molecule?
**A.** 8.13 µM

**Q.** And the TGI (HS 578T breast)?
**A.** > 25 µM

**Q.** And the GI50 (SF-539 CNS)?
**A.** 2.59 µM

**Q.** What about the TGI (SF-539 CNS) of the same molecule?
**A.** 6.28 µM

**Q.** What about the GI50 (SK-MEL-5 melanoma) of the same molecule?
**A.** 7.08 µM

**Q.** And the TGI (SK-MEL-5 melanoma)?
**A.** 21 µM

**Q.** And the GI50 (HOP-92 NSCLC)?
**A.** 5.32 µM

**Q.** What about the TGI (HOP-92 NSCLC) of the same molecule?
**A.** 24.7 µM

**Q.** And the GI50 (HCC-2998 colon)?
**A.** 3.8 µM

**Q.** What about the TGI (HCC-2998 colon) of the same molecule?
**A.** 7.54 µM

**Q.** And the GI50 (M14 melanoma)?
**A.** 4.7 µM

**Q.** What about the TGI (M14 melanoma) of the same molecule?
**A.** 12.2 µM

**Q.** What about the GI50 (NCI/ADR-RES ovarian) of the same molecule?
**A.** 6.06 µM

**Q.** And the TGI (NCI/ADR-RES ovarian)?
**A.** > 25 µM

**Q.** What about the GI50 (A549 NSCLC) of the same molecule?
**A.** 5.74 µM

**Q.** And the TGI (A549 NSCLC)?
**A.** > 25 µM

**Q.** What about the GI50 (NCI-H460 lung) of the same molecule?
**A.** 3.4 µM

**Q.** What about the TGI (NCI-H460 lung) of the same molecule?
**A.** 10.5 µM

**Q.** What about the GI50 (OVCAR-5 ovarian) of the same molecule?
**A.** 3.54 µM

**Q.** And the TGI (OVCAR-5 ovarian)?
**A.** 9.04 µM

**Q.** And the GI50 (RXF 393 renal)?
**A.** 3.11 µM

**Q.** What about the TGI (RXF 393 renal) of the same molecule?
**A.** 7.27 µM

**Q.** And the GI50 (BT-549 breast)?
**A.** 2.61 µM

**Q.** And the TGI (BT-549 breast)?
**A.** 6.77 µM

**Q.** And the GI50 (RPMI-8226 leukemia)?
**A.** 1.01 µM

**Q.** And the TGI (RPMI-8226 leukemia)?
**A.** 5.98 µM

**Q.** What about the GI50 (T-47D breast) of the same molecule?
**A.** 2.54 µM

**Q.** What about the TGI (T-47D breast) of the same molecule?
**A.** 22.9 µM

**Q.** What about the GI50 (ACHN renal) of the same molecule?
**A.** 4.17 µM

**Q.** And the TGI (ACHN renal)?
**A.** 8.72 µM

**Q.** What about the GI50 (SF-295 CNS) of the same molecule?
**A.** 9.12 µM

**Q.** And the TGI (SF-295 CNS)?
**A.** > 25 µM

**Q.** What about the GI50 (A498 renal) of the same molecule?
**A.** 3.35 µM

**Q.** And the TGI (A498 renal)?
**A.** 6.79 µM

**Q.** And the GI50 (IGROV1 ovarian)?
**A.** 3.03 µM

**Q.** And the TGI (IGROV1 ovarian)?
**A.** 12.1 µM

**Q.** And the GI50 (SK-MEL-28 melanoma)?
**A.** 4.82 µM

**Q.** What about the TGI (SK-MEL-28 melanoma) of the same molecule?
**A.** 11.6 µM

**Q.** What about the GI50 (MALME-3M melanoma) of the same molecule?
**A.** 4.48 µM

**Q.** And the TGI (MALME-3M melanoma)?
**A.** 12.2 µM

**Q.** And the GI50 (HL-60(TB) leukemia)?
**A.** 2.99 µM

**Q.** And the TGI (HL-60(TB) leukemia)?
**A.** 10.4 µM

**Q.** What about the GI50 (SF-268 CNS) of the same molecule?
**A.** 2.98 µM

**Q.** And the TGI (SF-268 CNS)?
**A.** 9.42 µM

**Q.** And the GI50 (DU-145 prostate)?
**A.** 1.5 µM

**Q.** And the TGI (DU-145 prostate)?
**A.** 4.89 µM

**Q.** What about the GI50 (SR leukemia) of the same molecule?
**A.** 0.792 µM

**Q.** And the TGI (SR leukemia)?
**A.** > 25 µM

**Q.** And the GI50 (COLO 205 colon)?
**A.** 2.78 µM

**Q.** And the TGI (COLO 205 colon)?
**A.** 7.05 µM

**Q.** What about the GI50 (NCI-H23 lung) of the same molecule?
**A.** 3.58 µM

**Q.** What about the TGI (NCI-H23 lung) of the same molecule?
**A.** 9.3 µM

**Q.** What about the GI50 (HCT-15 colon) of the same molecule?
**A.** 1.9 µM

**Q.** And the TGI (HCT-15 colon)?
**A.** > 25 µM

**Q.** What about the GI50 (HOP-62 NSCLC) of the same molecule?
**A.** 3.69 µM

**Q.** What about the TGI (HOP-62 NSCLC) of the same molecule?
**A.** 12.5 µM

**Q.** And the GI50 (UO-31 renal)?
**A.** 2.63 µM

**Q.** And the TGI (UO-31 renal)?
**A.** 6.19 µM

**Q.** And the GI50 (CCRF-CEM leukemia)?
**A.** 2.55 µM

**Q.** And the TGI (CCRF-CEM leukemia)?
**A.** > 25 µM

**Q.** And the GI50 (MDA-MB-435)?
**A.** 4.08 µM

**Q.** And the TGI (MDA-MB-435)?
**A.** 10.4 µM

**Q.** And the GI50 (HCT-116 colon)?
**A.** 3.46 µM

**Q.** And the TGI (HCT-116 colon)?
**A.** 8.47 µM

**Q.** And the GI50 (MCF7 breast)?
**A.** 1.67 µM

**Q.** What about the TGI (MCF7 breast) of the same molecule?
**A.** > 25 µM

**Q.** What about the GI50 (UACC-257 melanoma) of the same molecule?
**A.** 5.52 µM

**Q.** And the TGI (UACC-257 melanoma)?
**A.** 19.2 µM

**Q.** And the GI50 (TK-10 renal)?
**A.** 5.92 µM

**Q.** What about the TGI (TK-10 renal) of the same molecule?
**A.** 17.4 µM

**Q.** What about the GI50 (NCI-H226 lung) of the same molecule?
**A.** 6.9 µM

**Q.** And the TGI (NCI-H226 lung)?
**A.** > 25 µM

**Q.** What about the GI50 (U251 CNS) of the same molecule?
**A.** 2.35 µM

**Q.** And the TGI (U251 CNS)?
**A.** 6.7 µM

**Q.** What about the GI50 (SNB-19 CNS) of the same molecule?
**A.** 3.39 µM

**Q.** And the TGI (SNB-19 CNS)?
**A.** 10.5 µM

**Q.** And the GI50 (HT29 colon)?
**A.** 2.98 µM

**Q.** What about the TGI (HT29 colon) of the same molecule?
**A.** 7.36 µM

**Q.** And the GI50 (SNB-75 CNS)?
**A.** 2.5 µM

**Q.** And the TGI (SNB-75 CNS)?
**A.** > 25 µM

**Q.** And the GI50 (SW-620 colon)?
**A.** 2.77 µM

**Q.** And the TGI (SW-620 colon)?
**A.** 8.72 µM

**Q.** And the GI50 (NCI-H522 lung)?
**A.** 4.04 µM

**Q.** What about the TGI (NCI-H522 lung) of the same molecule?
**A.** 7.74 µM

**Q.** And the GI50 (SK-OV-3 ovarian)?
**A.** 7.54 µM

**Q.** What about the TGI (SK-OV-3 ovarian) of the same molecule?
**A.** > 25 µM

**Q.** What about the GI50 (786-0 renal) of the same molecule?
**A.** 4.12 µM

**Q.** And the TGI (786-0 renal)?
**A.** 12.1 µM

**Q.** What about the GI50 (PC-3 prostate) of the same molecule?
**A.** 3.87 µM

**Q.** And the TGI (PC-3 prostate)?
**A.** 10.8 µM

**Q.** And the GI50 (K-562 leukemia)?
**A.** 1.02 µM

**Q.** And the TGI (K-562 leukemia)?
**A.** > 25 µM

**Q.** What about the GI50 (OVCAR-4 ovarian) of the same molecule?
**A.** 5.49 µM

**Q.** What about the TGI (OVCAR-4 ovarian) of the same molecule?
**A.** > 25 µM

**Q.** And the GI50 (SK-MEL-2 melanoma)?
**A.** 4.95 µM

**Q.** And the TGI (SK-MEL-2 melanoma)?
**A.** 14.8 µM

**Q.** And the GI50 (MOLT-4 leukemia)?
**A.** 5.03 µM

**Q.** What about the TGI (MOLT-4 leukemia) of the same molecule?
**A.** 15.8 µM

**Q.** What about the GI50 (KM12 colon) of the same molecule?
**A.** 2.13 µM

**Q.** What about the TGI (KM12 colon) of the same molecule?
**A.** 5.44 µM

**Q.** What about the GI50 (SN12C renal) of the same molecule?
**A.** 6.67 µM

**Q.** What about the TGI (SN12C renal) of the same molecule?
**A.** > 25 µM

**Q.** What about the GI50 (UACC-62 melanoma) of the same molecule?
**A.** 4.26 µM

**Q.** And the TGI (UACC-62 melanoma)?
**A.** 9.47 µM

**Q.** What about the GI50 (MDA-MB-231 breast) of the same molecule?
**A.** 5.9 µM

**Q.** What about the TGI (MDA-MB-231 breast) of the same molecule?
**A.** > 25 µM

**Q.** What about the GI50 (LOX IMVI melanoma) of the same molecule?
**A.** 1.19 µM

**Q.** What about the TGI (LOX IMVI melanoma) of the same molecule?
**A.** 4.4 µM

**Q.** What about the GI50 (CAKI-1 renal) of the same molecule?
**A.** 2.36 µM

**Q.** What about the TGI (CAKI-1 renal) of the same molecule?
**A.** > 25 µM

**Q.** And the GI50 (OVCAR-8 ovarian)?
**A.** 6.62 µM

**Q.** And the TGI (OVCAR-8 ovarian)?
**A.** > 25 µM
